From BigSolDB 2.1

COc1cc(Cc2cnc(N)nc2N)cc(OC)c1OC
solubility (mole fraction)
Details	293.15 K	298.45 K	303.45 K	308.15 K	312.95 K	318.65 K	322.65 K
in acetonitrile	0.00035	0.000437	0.000534	0.000664	0.000809	0.00103	0.00127
in ethanol	0.00071	0.00092	0.00112	0.00134	0.00173	0.00226	0.00304
in ethyl acetate	0.000276	0.000332	0.000398	0.000481	0.000606	0.000773	0.000966
in isopropanol	0.000227	0.000294	0.000434	0.000543	0.000764	0.00106	0.00141
in water	2e-05	2.49e-05	3.02e-05	3.68e-05	4.68e-05	6.05e-05	7.14e-05
